Measured values from US20240358744A1, “WOUND HEALING DRESSINGS AND FORMULATIONS AND METHODS OF USE THEREOF” (POLAROID IP B.V., priority 2023, published 2024).
Values after ≈ are worked out from the molar mass of the structure shown.

Assays:
[1] = test system: Escherichia coli ATCC 25922; assay: MBC, spot plating after 24 h; conditions: for MBC EC25922: Table 18
Experimental: (§5) To determine MBC compound concentrations breakpoints were estimated from MIC curves. Overnight cultures were set up as described above for all bacterial strains. The following day overnight cultures were adjusted to give a cell density of 5×10^5 cells per mL. Briefly, cultures were adjusted to the McFarland standard (0.08-0.12) and diluted (1:150). Adjusted cultures were inoculated into 96 well plates with 50 μL sterile Muller-Hinton broth (MHB) and 2 concentrations of each compound. […] MBC cultures were quantified by serial dilution in a 96 well plate and spot plating onto Muller-Hinton agar (MHA). MHA plates were incubated at 37° C. for 24 h and counted. Results are presented as CFU per mL.
(§6) To determine MBC compound concentrations, breakpoints were estimated from MIC curves. Overnight cultures were set up as described above for all bacterial strains. The following day overnight cultures were adjusted to give a cell density of 5×10^5 cells per mL. Briefly, cultures were adjusted to the McFarland standard (0.08-0.12) and diluted (1:150). Adjusted cultures were inoculated into 96 well plates with 50 μL sterile Muller-Hinton broth (MHB) and 2 concentrations of each compound. […] MBC cultures were quantified by serial dilution in a 96 well plate and spot plating onto Muller-Hinton agar (MHA). MHA plates were incubated at 37° C. for 24 hours and counted.

[2] = test system: Enterococcus faecalis ATCC 19433; assay: MIC, broth microdilution in MH broth (resazurin); conditions: Table 17, modified Gompertz model
[3] = test system: Pseudomonas aeruginosa ATCC 27853; assay: MIC, broth microdilution in MH broth (resazurin); conditions: Table 17; modified Gompertz model; not marked ^: unreliable estimation, interpret with caution
[4] = test system: Human Keratinocyte (HaCaT) cells; assay: LDH cytotoxicity assay, HaCaT; format: cell-based; conditions: Table 16, summarized cell toxicity value, 24 hours treatment
Experimental: (§1) Primary Human Dermal Fibroblast (HDFs) and Human Keratinocyte (HaCaT) cells were selected for cytotoxicity and proliferation testing. HDFs were cultured in high glucose, no glutamine, no phenol red, Dulbecco's Modified Eagle Medium (DMEM) (GIBCO™). HDF media was further supplemented with 10% heat-inactivated fetal bovine serum (GIBCO™), 1% L-glutamine (GIBCO™) and 1% Penicillin-streptomycin (GIBCO™). HaCaTs cells were cultured in high glucose, no glutamine, no calcium DMEM (GIBCO™) supplemented with 10% heat inactivated foetal bovine serum, 1% L-glutamine, 1% Penicillin-streptomycin 1 mM calcium chloride (Sigma) throughout.
(§2) Mammalian cell populations were maintained in standard culture conditions at 37° C., 5% CO2 and >95% relative humidity. Upon reaching 80% total confluency, cells were removed from the incubator, the culture media aspirated, and the monolayer washed with Dulbecco's […] (DPBS). After washing, 10 mL of 1% trypsin (GIBCO™) was added to the flask and incubated to facilitate the detachment of cells from the culture vessel. Following dissociation, 10 mL of culture media was then added to each flask to neutralize the trypsin enzyme activity. The total 20-mL flask volume was transferred into a universal tube and centrifuged at 400 rcf for 5 minutes. Once complete, the pellet of cells was re-suspended in 10 mL warmed culture media and the number of cells per mL was determined using a hemocytometer counting chamber. Cell suspensions were then adjusted to 5×10^4 cells/mL for HDFs and 1×10^5 cells/mL for HaCaTs. 100 μL of the cell suspension was added to each well of a sterile, cell-culture-treated 96-well microtiter plate. The plates were incubated in standard culture conditions for 16-24 hours to allow cellular adherence to the culture vessel. […] Culture plates were removed from the incubator, the media removed; and monolayers washed with 100 μL of warmed DPBS. The contents of the test item dilution plates were transferred to the culture plates. […]
(§3) The secretion of lactate dehydrogenase (LDH) enzyme was used for quantitatively measuring cell damage and cytotoxicity. As damage to the cell plasma membrane releases LDH into the cell culture media, the extracellular LDH in the media can be quantified by a coupled enzymatic reaction in which LDH catalyzes the conversion of lactate to pyruvate via NAD+ reduction to NADH. […]
(§4) Following incubation with the selected compounds, 50 μL of media from each well was transferred to the corresponding well of a fresh 96 well culture plate. The presence of Lactate dehydrogenase (LDH) was then quantified using the INVITROGEN™ CyQUANT™ LDH Cytotoxicity Assay, fluorescence kit. Total fluorescence was measured by reading the plates on a plate reader at an excitation of 560 nm and an emission of 590 nm. […]

[5] = test system: Primary Human Dermal Fibroblast (HDFs); assay: LDH cytotoxicity assay, HDF; format: cell-based; conditions: Table 16, summarized cell toxicity value, 24 hours treatment
Experimental: as §1, §2, §3, §4

[6] = test system: Escherichia coli ATCC 25922; assay: MIC, broth microdilution in MH broth (resazurin); conditions: Table 17; modified Gompertz model; not marked ^: unreliable estimation, interpret with caution
[7] = test system: Staphylococcus aureus MR1; assay: MIC, broth microdilution in MH broth (resazurin); conditions: Table 17; modified Gompertz model; not marked ^: unreliable estimation, interpret with caution
[8] = test system: Klebsiella pneumoniae KL1; assay: MIC, broth microdilution in MH broth (resazurin); conditions: Table 17; modified Gompertz model; not marked ^: unreliable estimation, interpret with caution
[9] = test system: Staphylococcus aureus ATCC 29213; assay: MBC, spot plating after 24 h; conditions: Staphylococcus aureus 29213; Example 11
Experimental: as §5, §6

[10] = test system: Staphylococcus aureus MR1; assay: MBC, spot plating after 24 h; conditions: Example 11
Experimental: as §5, §6

[11] = test system: Klebsiella pneumoniae KL1; assay: MBC, spot plating after 24 h
Experimental: as §5, §6

[12] = test system: Enterococcus faecalis ATCC 19433; assay: MBC, spot plating after 24 h; conditions: Enterococcus faecalis EF19433; Example 11
Experimental: as §5, §6

[13] = test system: Pseudomonas aeruginosa ATCC 27853; assay: MBC, spot plating after 24 h; conditions: Pseudomonas aeruginosa 27853; Example 11
Experimental: as §5, §6

[14] = test system: Staphylococcus aureus NRS384; format: cell-based; conditions: Example 11
[15] = test system: Enterococcus faecalis ATCC 51299; assay: MBC, spot plating after 24 h; conditions: Enterococcus faecalis EF51299; Example 11
Experimental: as §5, §6

S. aureus NRS 384 = assay: Mouse Staphylococcus aureus-induced wound infection model, bacteria load in wound site (Studies I-V); conditions: for Ig(CFU/wound site) / ΔIg(CFU/wound site) vs infection control: Study III (Table 12), 1 mg/ml
[16] = Assessment of MIC of select compounds, DMSO stocks (Example 8, Table 21); format: cell-based
[17] = test system: Staphylococcus aureus NRS384; assay: Murine wound infection model, bacterial CFU/wound (Example 6); conditions: Study 2 pilot; daily application of vancomycin (10 μg per wound)
[18] = 10 μL/wound site, 10 μg/wound site, twice a day, 24 h p.i.
[19] = 10 μL/wound site, 10 μg/wound site, twice a day, 48 h p.i.
[20] = 10 μL/wound site, 10 μg/wound site, twice a day, 72 h p.i.
[21] = 50 μL/wound site, 50 μg/wound site, twice a day, 24 h p.i.

CCCCCCCCCCCCCCCCCC[N+](C)(C)CCOCCO.[Br-] [39637 105543]
MBC EC25922 [1]: 25 µM

CCCCCC[N+](C)(C)CCOCCO.[Br-] [Compound 40598_109448]
MIC EF19433 ([2]; not marked ^: unreliable estimation, interpret with caution): Unstable
MIC PA27853 [3]: 0.06 µM
Mammalian Cell Cytotoxicity, HaCaT [4]: >100 µM
Mammalian Cell Cytotoxicity, HDF [5]: >100 µM
MIC EC25922 [6]: 0.83 µM

CCCCCCCCCCCC[N+](C)(C)CCOCCO.[Br-] [Compound 40597_109444]
Mammalian Cell Cytotoxicity, HaCaT [4]: 100 µM
MIC MR1 [7]: 0.94 µM
MIC KL1 [8]: 0.01 µM
Mammalian Cell Cytotoxicity, HDF [5]: 100 µM

CN[C@H](CC(C)C)C(=O)N[C@H]1C(=O)N[C@@H](CC(N)=O)C(=O)N[C@H]2C(=O)N[C@H]3C(=O)N[C@H](C(=O)N[C@H](C(=O)O)c4cc(O)cc(O)c4-c4cc3ccc4O)[C@H](O)c3ccc(c(Cl)c3)Oc3cc2cc(c3O[C@@H]2O[C@H](CO)[C@@H](O)[C@H](O)[C@H]2O[C@H]2C[C@](C)(N)[C@H](O)[C@H](C)O2)Oc2ccc(cc2Cl)[C@H]1O [Van]
MBC Concentration (μM) H ([1]; Escherichia coli EC25922, Example 11): 0.31 µM (≈ 0.449 µg/mL)
MBC Concentration (μM) A [9]: 0.02 µM (≈ 0.029 µg/mL)
MBC Concentration (μM) B [10]: 0.02 µM (≈ 0.029 µg/mL)
MBC Concentration (μM) F ([11]; Klebisella pneumoniae KL1, Example 11): 1.25 µM (≈ 1.81 µg/mL)
MBC Concentration (μM) E [12]: 0.08 µM (≈ 0.116 µg/mL)
MBC Concentration (μM) G [13]: 2.50 µM (≈ 3.62 µg/mL)
MBC Concentration (μM) C [14]: 0.02 µM (≈ 0.029 µg/mL)
MBC Concentration (μM) D [15]: 0.04 µM (≈ 0.058 µg/mL)

CCCCCCCCCCCCCCCCCC[N+](C)(C)CCOCCO.[Br-] [Compound 39637_109466]
MBC EC25922 [1]: 25 µM
MBC KL1 ([11]; Table 18): 50 µM
Mammalian Cell Cytotoxicity, HaCaT [4]: 6.3 µM
Mammalian Cell Cytotoxicity, HDF [5]: 6.3 µM

CN[C@H](CC(C)C)C(=O)N[C@H]1C(=O)N[C@@H](CC(N)=O)C(=O)N[C@H]2C(=O)N[C@H]3C(=O)N[C@H](C(=O)N[C@H](C(=O)O)c4cc(O)cc(O)c4-c4cc3ccc4O)[C@H](O)c3ccc(c(Cl)c3)Oc3cc2cc(c3O[C@@H]2O[C@H](CO)[C@@H](O)[C@H](O)[C@H]2O[C@H]2C[C@](C)(N)[C@H](O)[C@H](C)O2)Oc2ccc(cc2Cl)[C@H]1O [Vancomycin]
Ig (CFU/wound site) 12 h p.i. (S. aureus NRS 384; Study I, inoculum 4.20E+06 CFU/wound site, 39637 and 20-1 100 μM, 50 μL/wound site, once a day, Vancomycin 1 mg/ml, 10 μL/wound site, twice a day, starting at 5 min p.i.): 8.47 ± 0.22 Ig (CFU/wound site)
Ig (CFU/wound site) 24 h p.i. (S. aureus NRS 384; Study I, same regimens as E1): 7.67 ± 0.60 Ig (CFU/wound site)
ΔIg (CFU/wound site) vs 12 h infection control (S. aureus NRS 384; Study I, same regimens as E1): −0.11 ± 0.22 Ig (CFU/wound site)
ΔIg (CFU/wound site) vs 24 h infection control (S. aureus NRS 384; Study I, same regimens as E1): −1.12 ± 0.60 Ig (CFU/wound site)
effect at 12-hour post infection (S. aureus NRS 384; Study I, single dose at 10 μg): not manifest
Ig(CFU/wound site) (S. aureus NRS 384; [18]): 7.67 Ig(CFU/wound site)
ΔIg(CFU/wound site) vs infection control (S. aureus NRS 384; [18]): −1.11 Ig(CFU/wound site)
Ig(CFU/wound site) (S. aureus NRS 384; [19]): 5.29 Ig(CFU/wound site)
ΔIg(CFU/wound site) vs infection control (S. aureus NRS 384; [19]): −3.28 Ig(CFU/wound site)
Ig(CFU/wound site) (S. aureus NRS 384; [20]): 5.12 Ig(CFU/wound site)
ΔIg(CFU/wound site) vs infection control (S. aureus NRS 384; [20]): −2.83 Ig(CFU/wound site)
Ig(CFU/wound site) (S. aureus NRS 384; [21]): 4.37 Ig(CFU/wound site)
ΔIg(CFU/wound site) vs infection control (S. aureus NRS 384; [21]): −4.40 Ig(CFU/wound site)
MIC Concentration ([16]; Enterococcus faecalis EF19433): 5.00 µM
MIC Concentration ([16]; Escherichia coli EC25922): 0.63 µM
MIC Concentration ([16]; Klebisella oxytoca KL1): 0.63 µM
MIC Concentration ([16]; Pseudomonas aeruginosa 27853): 5.00 µM
MIC Concentration ([16]; Staphylococcus aureus 29213): 0.04 µM
MIC Concentration ([16]; Staphylococcus aureus MR1): 0.04 µM
MIC Concentration ([16]; Staphylococcus aureus NRS384): 0.04 µM
log reduction in wound S. aureus at 24 hrs post-seeding [17]: 1 log
log reduction in wound S. aureus at 72 hrs post-seeding [17]: 1 log

CCCCCCCCCCCCCCCCCC[N+](C)(C)CCOCCO.[Br-] [Compound 39637_105543]
MIC EF19433 ([2]; marked ^: reliable estimation of MIC): 3.20^ μM
Mammalian Cell Cytotoxicity, HaCaT [4]: 6.3 µM
MIC KL1 [8]: +infinity
Mammalian Cell Cytotoxicity, HDF [5]: 6.3 µM
